Entries after “also recorded” stand apart in the source; their conditions may differ. Counter-ions that a name gives are not always drawn. Like-named read-outs stand apart in the source and are kept apart here.
System: pediatric patients with recurrent or refractory solid and CNS tumors
[1] = Dose Level 1, 80 mg/m^2, Part A, 6 evaluable
[2] = Dose Level 2, 100 mg/m^2, Part A, 5 evaluable
[3] = Dose Level 3, 125 mg/m^2, Part A, 4 evaluable
[4] = Dose Level 4, 150 mg/m^2, Part A, 5 evaluable
[5] = Dose Level 4, 150 mg/m^2, Part PK (expansion cohort), 5 evaluable
[6] = cycle 1, All Dose Levels (N=25)
[7] = cycle 1, Dose Level 1 (N=6), 80 mg/m^2
[8] = cycle 1, Dose Level 2 (N=5), 100 mg/m^2
[9] = cycle 1, Dose Level 3 (N=4), 125 mg/m^2
[10] = cycle 1, Dose Level 4 (N=10), 150 mg/m^2
[11] = cycle 1, drug-related, all dose levels, 25 evaluable

## COc1cccc(OCCCN)c1-c1cc(Nc2cnc(C#N)cn2)n[nH]1 [prexasertib, Prexasertib mesylate monohydrate]
22/25 patients
  Grade 4 neutropenia, patients: 88%
[1]
  No. of Patients with Cycle 1 DLTs: 0
  No. of Patients with Later-Cycle DLTs: 0
[2]
  No. of Patients with Cycle 1 DLTs: 0
  No. of Patients with Later-Cycle DLTs: 0
[3]
  No. of Patients with Cycle 1 DLTs: 0
  No. of Patients with Later-Cycle DLTs: 0
[4]
  No. of Patients with Cycle 1 DLTs: 0
  No. of Patients with Later-Cycle DLTs: 0
[5]
  No. of Patients with Cycle 1 DLTs: 0
  No. of Patients with Later-Cycle DLTs: 0
IV days 1 and 15 of 28-day cycle, up to 150 mg/m^2
  maximum tolerated dose (MTD): not defined; also recorded: not reached; also recorded: did not reach
[6]
  Alanine aminotransferase increased, All: 5 (20) No. (%)
  Alanine aminotransferase increased, ≥ Grade 3: 1 (4) No. (%)
  Anemia, All: 19 (76) No. (%)
  Anemia, ≥ Grade 3: 3 (12) No. (%)
  Anorexia, All: 3 (12) No. (%)
  Anorexia, ≥ Grade 3: 0 (0) No. (%)
  Aspartate aminotransferase increased, All: 4 (16) No. (%)
  Aspartate aminotransferase increased, ≥ Grade 3: 0 (0) No. (%)
  Diarrhea, All: 4 (16) No. (%)
  Diarrhea, ≥ Grade 3: 0 (0) No. (%)
  Electrocardiogram QT corrected interval prolonged, All: 9 (36) No. (%)
  Electrocardiogram QT corrected interval prolonged, ≥ Grade 3: 0 (0) No. (%)
  Fatigue, All: 6 (24) No. (%)
  Fatigue, ≥ Grade 3: 0 (0) No. (%)
  Headache, All: 3 (12) No. (%)
  Headache, ≥ Grade 3: 0 (0) No. (%)
  Hypokalemia, All: 5 (20) No. (%)
  Hypokalemia, ≥ Grade 3: 0 (0) No. (%)
  Hypophosphatemia, All: 4 (16) No. (%)
  Hypophosphatemia, ≥ Grade 3: 0 (0) No. (%)
  Infusion-related reaction, All: 3 (12) No. (%)
  Infusion-related reaction, ≥ Grade 3: 0 (0) No. (%)
  Lymphocyte count decreased, All: 12 (48) No. (%)
  Lymphocyte count decreased, ≥ Grade 3: 6 (24) No. (%)
  Myalgia, All: 3 (12) No. (%)
  Myalgia, ≥ Grade 3: 0 (0) No. (%)
  Nausea, All: 5 (20) No. (%)
  Nausea, ≥ Grade 3: 0 (0) No. (%)
  Neutrophil count decreased, All: 25 (100) No. (%)
  Neutrophil count decreased, ≥ Grade 3: 25 (100) No. (%)
  Platelet count decreased, All: 21 (84) No. (%)
  Platelet count decreased, ≥ Grade 3: 6 (24) No. (%)
  Vomiting, All: 6 (24) No. (%)
  Vomiting, ≥ Grade 3: 0 (0) No. (%)
  White blood cell decreased, All: 24 (96) No. (%)
  White blood cell decreased, ≥ Grade 3: 17 (68) No. (%)
[7]
  Alanine aminotransferase increased, All: 2 (33) No. (%)
  Alanine aminotransferase increased, ≥ Grade 3: 0 (0) No. (%)
  Anemia, All: 5 (83) No. (%)
  Anemia, ≥ Grade 3: 0 (0) No. (%)
  Anorexia, All: 2 (33) No. (%)
  Anorexia, ≥ Grade 3: 0 (0) No. (%)
  Aspartate aminotransferase increased, All: 0 (0) No. (%)
  Aspartate aminotransferase increased, ≥ Grade 3: 0 (0) No. (%)
  Diarrhea, All: 2 (33) No. (%)
  Diarrhea, ≥ Grade 3: 0 (0) No. (%)
  Electrocardiogram QT corrected interval prolonged, All: 2 (33) No. (%)
  Electrocardiogram QT corrected interval prolonged, ≥ Grade 3: 0 (0) No. (%)
  Fatigue, All: 0 (0) No. (%)
  Fatigue, ≥ Grade 3: 0 (0) No. (%)
  Headache, All: 0 (0) No. (%)
  Headache, ≥ Grade 3: 0 (0) No. (%)
  Hypokalemia, All: 0 (0) No. (%)
  Hypokalemia, ≥ Grade 3: 0 (0) No. (%)
  Hypophosphatemia, All: 1 (17) No. (%)
  Hypophosphatemia, ≥ Grade 3: 0 (0) No. (%)
  Infusion-related reaction, All: 1 (17) No. (%)
  Infusion-related reaction, ≥ Grade 3: 0 (0) No. (%)
  Lymphocyte count decreased, All: 3 (50) No. (%)
  Lymphocyte count decreased, ≥ Grade 3: 2 (33) No. (%)
  Myalgia, All: 0 (0) No. (%)
  Myalgia, ≥ Grade 3: 0 (0) No. (%)
  Nausea, All: 1 (17) No. (%)
  Nausea, ≥ Grade 3: 0 (0) No. (%)
  Neutrophil count decreased, All: 6 (100) No. (%)
  Neutrophil count decreased, ≥ Grade 3: 6 (100) No. (%)
  Platelet count decreased, All: 4 (67) No. (%)
  Platelet count decreased, ≥ Grade 3: 1 (17) No. (%)
  Vomiting, All: 1 (17) No. (%)
  Vomiting, ≥ Grade 3: 0 (0) No. (%)
  White blood cell decreased, All: 5 (83) No. (%)
  White blood cell decreased, ≥ Grade 3: 4 (67) No. (%)
[8]
  Alanine aminotransferase increased, All: 2 (40) No. (%)
  Alanine aminotransferase increased, ≥ Grade 3: 1 (20) No. (%)
  Anemia, All: 3 (60) No. (%)
  Anemia, ≥ Grade 3: 1 (20) No. (%)
  Anorexia, All: 0 (0) No. (%)
  Anorexia, ≥ Grade 3: 0 (0) No. (%)
  Aspartate aminotransferase increased, All: 3 (60) No. (%)
  Aspartate aminotransferase increased, ≥ Grade 3: 0 (0) No. (%)
  Diarrhea, All: 1 (20) No. (%)
  Diarrhea, ≥ Grade 3: 0 (0) No. (%)
  Electrocardiogram QT corrected interval prolonged, All: 1 (20) No. (%)
  Electrocardiogram QT corrected interval prolonged, ≥ Grade 3: 0 (0) No. (%)
  Fatigue, All: 2 (40) No. (%)
  Fatigue, ≥ Grade 3: 0 (0) No. (%)
  Headache, All: 0 (0) No. (%)
  Headache, ≥ Grade 3: 0 (0) No. (%)
  Hypokalemia, All: 2 (40) No. (%)
  Hypokalemia, ≥ Grade 3: 0 (0) No. (%)
  Hypophosphatemia, All: 0 (0) No. (%)
  Hypophosphatemia, ≥ Grade 3: 0 (0) No. (%)
  Infusion-related reaction, All: 1 (20) No. (%)
  Infusion-related reaction, ≥ Grade 3: 0 (0) No. (%)
  Lymphocyte count decreased, All: 2 (40) No. (%)
  Lymphocyte count decreased, ≥ Grade 3: 0 (0) No. (%)
  Myalgia, All: 1 (20) No. (%)
  Myalgia, ≥ Grade 3: 0 (0) No. (%)
  Nausea, All: 1 (20) No. (%)
  Nausea, ≥ Grade 3: 0 (0) No. (%)
  Neutrophil count decreased, All: 5 (100) No. (%)
  Neutrophil count decreased, ≥ Grade 3: 5 (100) No. (%)
  Platelet count decreased, All: 5 (100) No. (%)
  Platelet count decreased, ≥ Grade 3: 2 (40) No. (%)
  Vomiting, All: 1 (20) No. (%)
  Vomiting, ≥ Grade 3: 0 (0) No. (%)
  White blood cell decreased, All: 5 (100) No. (%)
  White blood cell decreased, ≥ Grade 3: 3 (60) No. (%)
[9]
  Alanine aminotransferase increased, All: 0 (0) No. (%)
  Alanine aminotransferase increased, ≥ Grade 3: 0 (0) No. (%)
  Anemia, All: 3 (75) No. (%)
  Anemia, ≥ Grade 3: 1 (25) No. (%)
  Anorexia, All: 0 (0) No. (%)
  Anorexia, ≥ Grade 3: 0 (0) No. (%)
  Aspartate aminotransferase increased, All: 0 (0) No. (%)
  Aspartate aminotransferase increased, ≥ Grade 3: 0 (0) No. (%)
  Diarrhea, All: 0 (0) No. (%)
  Diarrhea, ≥ Grade 3: 0 (0) No. (%)
  Electrocardiogram QT corrected interval prolonged, All: 2 (50) No. (%)
  Electrocardiogram QT corrected interval prolonged, ≥ Grade 3: 0 (0) No. (%)
  Fatigue, All: 2 (50) No. (%)
  Fatigue, ≥ Grade 3: 0 (0) No. (%)
  Headache, All: 1 (25) No. (%)
  Headache, ≥ Grade 3: 0 (0) No. (%)
  Hypokalemia, All: 1 (25) No. (%)
  Hypokalemia, ≥ Grade 3: 0 (0) No. (%)
  Hypophosphatemia, All: 0 (0) No. (%)
  Hypophosphatemia, ≥ Grade 3: 0 (0) No. (%)
  Infusion-related reaction, All: 0 (0) No. (%)
  Infusion-related reaction, ≥ Grade 3: 0 (0) No. (%)
  Lymphocyte count decreased, All: 2 (50) No. (%)
  Lymphocyte count decreased, ≥ Grade 3: 2 (50) No. (%)
  Myalgia, All: 0 (0) No. (%)
  Myalgia, ≥ Grade 3: 0 (0) No. (%)
  Nausea, All: 0 (0) No. (%)
  Nausea, ≥ Grade 3: 0 (0) No. (%)
  Neutrophil count decreased, All: 4 (100) No. (%)
  Neutrophil count decreased, ≥ Grade 3: 4 (100) No. (%)
  Platelet count decreased, All: 4 (100) No. (%)
  Platelet count decreased, ≥ Grade 3: 2 (50) No. (%)
  Vomiting, All: 0 (0) No. (%)
  Vomiting, ≥ Grade 3: 0 (0) No. (%)
  White blood cell decreased, All: 4 (100) No. (%)
  White blood cell decreased, ≥ Grade 3: 3 (75) No. (%)
[10]
  Alanine aminotransferase increased, All: 1 (10) No. (%)
  Alanine aminotransferase increased, ≥ Grade 3: 0 (0) No. (%)
  Anemia, All: 8 (80) No. (%)
  Anemia, ≥ Grade 3: 1 (10) No. (%)
  Anorexia, All: 1 (10) No. (%)
  Anorexia, ≥ Grade 3: 0 (0) No. (%)
  Aspartate aminotransferase increased, All: 1 (10) No. (%)
  Aspartate aminotransferase increased, ≥ Grade 3: 0 (0) No. (%)
  Diarrhea, All: 1 (10) No. (%)
  Diarrhea, ≥ Grade 3: 0 (0) No. (%)
  Electrocardiogram QT corrected interval prolonged, All: 4 (40) No. (%)
  Electrocardiogram QT corrected interval prolonged, ≥ Grade 3: 0 (0) No. (%)
  Fatigue, All: 2 (20) No. (%)
  Fatigue, ≥ Grade 3: 0 (0) No. (%)
  Headache, All: 2 (20) No. (%)
  Headache, ≥ Grade 3: 0 (0) No. (%)
  Hypokalemia, All: 2 (20) No. (%)
  Hypokalemia, ≥ Grade 3: 0 (0) No. (%)
  Hypophosphatemia, All: 3 (30) No. (%)
  Hypophosphatemia, ≥ Grade 3: 0 (0) No. (%)
  Infusion-related reaction, All: 1 (10) No. (%)
  Infusion-related reaction, ≥ Grade 3: 0 (0) No. (%)
  Lymphocyte count decreased, All: 5 (50) No. (%)
  Lymphocyte count decreased, ≥ Grade 3: 2 (20) No. (%)
  Myalgia, All: 2 (20) No. (%)
  Myalgia, ≥ Grade 3: 0 (0) No. (%)
  Nausea, All: 3 (30) No. (%)
  Nausea, ≥ Grade 3: 0 (0) No. (%)
  Neutrophil count decreased, All: 10 (100) No. (%)
  Neutrophil count decreased, ≥ Grade 3: 10 (100) No. (%)
  Platelet count decreased, All: 8 (80) No. (%)
  Platelet count decreased, ≥ Grade 3: 1 (10) No. (%)
  Vomiting, All: 4 (40) No. (%)
  Vomiting, ≥ Grade 3: 0 (0) No. (%)
  White blood cell decreased, All: 10 (100) No. (%)
  White blood cell decreased, ≥ Grade 3: 7 (70) No. (%)
[11]
  grade 3/4 anemia, patients: 12%
  grade 3/4 leukopenia, patients: 68%
  grade 3/4 lymphopenia, patients: 24%
  grade 3/4 neutropenia, patients: 100%
  grade 3/4 thrombocytopenia, patients: 24%
Cycle 1 or later, all dose levels 80-150 mg/m^2
  dose-limiting toxicities (DLTs): no cycle 1 or later dose-limiting toxicities; also recorded: No DLTs
